Data published in patent US20070280918A1, “Multitherapy Against Cancer” (priority 2004, published 2007).
Where “and” joins values, the source holds several entries; their conditions need not be identical. Identical values can stand only once. Like-named read-outs stand apart in the source and are kept apart here.

What was measured:
Calu-6 [1] = assay: Growth inhibition of Calu-6 cells, products alone (IC50) and in combination (CI, Chou and Talalay); assay type: cell-based; conditions: for IC50 (order of magnitude, in words): the cell lines tested (Calu-6 and NCI-H460)
Method: (§1) 1) Prior determination of the IC50 of the products taken in isolation on the cell lines.
(§2) Different concentration ratios were established, which were tested on the different cell lines.
(§3) For each cell line three tests were carried out.

NCI-H460 = assay: Growth inhibition of NCI-H460 cells, products alone (IC50) and in combination (CI, Chou and Talalay); assay type: cell-based; conditions: Avandia alone
Method: as §1, §2, §3

[2] = test system: type L1210 intra-peritoneal lymphoma; assay: Mortality of mice carrying type L1210 intra-peritoneal lymphoma; assay type: in vivo; conditions: for Ratio % Treated/controls (T/C%): median survival times; for anti-tumour effectiveness (in words): T/C% greater than 125%
Method: Mice carrying a type L1210 intra-peritoneal lymphoma were treated for 7 days in parallel with the following preparations: • SYN857 (A): chlorophosphoenol pyruvate • SYN856 (B): chlorophosphoenol pyruvate and carnitine ester • BCNU: carmustine • Vehicle: control
The weight of the animals for each group as well as the individual weight curves as a function of time were plotted and the mortality of the animals was monitored.
The parameter T/C% is calculated with the ratio of the median survival time of the animals in the group considered to the median survival time of the animals in the control group, all multiplied by 100.

Calu-6 [3] = assay: Fraction affected (Fa) and synergy index (CI) on lung cell line Calu-6, betaine citrate/metformin; assay type: cell-based
Excerpt: The cell line adopted for carrying out the experiment is the line Calu-6.
These Fa values are used in the calculation of the synergy index (CI) which makes it possible to report the presence or absence of synergy between the products.

[4] = product alone at 0.10 mM, three experiments
[5] = product alone at 0.20 mM, three experiments
[6] = product alone at 1.00 mM, three experiments
[7] = product alone at 2.00 mM, three experiments
[8] = product alone at 4.00 mM, three experiments

CN(CCOc1ccc(CC2SC(=O)NC2=O)cc1)c1ccccn1 (centres unmarked) [Avandia ®, rosiglitazone]
IC50 (Calu-6 [1]; Calu-6, Avandia alone): 14.1 µM | IC50 (order of magnitude, in words) (Calu-6 [1]): of the order of ten micromols | IC50 (NCI-H460): 8.84 µM

O=NN(CCCl)C(=O)NCCCl [BCNU ®, carmustine]
Ratio % Treated/controls (T/C%) ([2]; 15 mg/kg/inj.): >128.5% | Number of dead mice ([2]; 15 mg/kg/inj., positive control): 0 | Number of dead mice ([2]; 15 mg/kg/inj., positive control, listed as BCNU): still alive

CN(C)C(=N)N=C(N)N [Met, metformin]
Average Fa (Calu-6 [3]): 0.07 and 0.10 | Fa Exp 1 (Calu-6 [3]; product alone at 0.05 mM): 0.03 | Fa Exp 1 (Calu-6 [3]; product alone at 0.10 mM): 0.08 | Fa Exp 3 (Calu-6 [3]; product alone at 0.10 mM): 0.04 | Average Fa (Calu-6 [3]; [4]): 0.06 | Fa Exp 1 (Calu-6 [3]; product alone at 0.20 mM): 0.04 | Fa Exp 2 (Calu-6 [3]; product alone at 0.20 mM): 0.04 | Fa Exp 3 (Calu-6 [3]; product alone at 0.20 mM): 0.06 | Average Fa (Calu-6 [3]; [5]): 0.05 | Fa Exp 1 (Calu-6 [3]; product alone at 0.25 mM): 0.06 | Fa Exp 2 (Calu-6 [3]; product alone at 0.25 mM): 0.06 | Fa Exp 3 (Calu-6 [3]; product alone at 0.25 mM): 0.08 | Fa Exp 1 (Calu-6 [3]; product alone at 0.50 mM): 0.08 | Fa Exp 2 (Calu-6 [3]; product alone at 0.50 mM): 0.09 | Fa Exp 3 (Calu-6 [3]; product alone at 0.50 mM): 0.13 | Fa Exp 1 (Calu-6 [3]; product alone at 1.00 mM): 0.18 | Fa Exp 2 (Calu-6 [3]; product alone at 1.00 mM): 0.19 | Fa Exp 3 (Calu-6 [3]; product alone at 1.00 mM): 0.25 | Average Fa (Calu-6 [3]; [6]): 0.21 | Fa Exp 1 (Calu-6 [3]; product alone at 2.00 mM): 0.03 | Fa Exp 2 (Calu-6 [3]; product alone at 2.00 mM): 0.31 | Fa Exp 3 (Calu-6 [3]; product alone at 2.00 mM): 0.36 | Average Fa (Calu-6 [3]; [7]): 0.32 | Fa Exp 1 (Calu-6 [3]; product alone at 4.00 mM): 0.36 | Fa Exp 2 (Calu-6 [3]; product alone at 4.00 mM): 0.40 | Fa Exp 3 (Calu-6 [3]; product alone at 4.00 mM): 0.46 | Average Fa (Calu-6 [3]; [8]): 0.41

betaine citrate [Betain citrate]
IC50 (order of magnitude, in words) (Calu-6 [1]): of the order of a millimol | Fa Exp 1 (Calu-6 [3]; product alone at 0.05 mM): 0.00 | Fa Exp 1 (Calu-6 [3]; product alone at 0.10 mM): 0.00 | Fa Exp 2 (Calu-6 [3]; product alone at 0.10 mM): 0.02 | Fa Exp 3 (Calu-6 [3]; product alone at 0.10 mM): 0.00 | Average Fa (Calu-6 [3]; [4]): 0.02 | Fa Exp 1 (Calu-6 [3]; product alone at 0.20 mM): 0.12 | Fa Exp 3 (Calu-6 [3]; product alone at 0.20 mM): 0.00 | Average Fa (Calu-6 [3]; [5]): 0.01 | Fa Exp 1 (Calu-6 [3]; product alone at 0.25 mM): 0.02 | Fa Exp 2 (Calu-6 [3]; product alone at 0.25 mM): 0.08 | Fa Exp 3 (Calu-6 [3]; product alone at 0.25 mM): 0.00 | Average Fa (Calu-6 [3]; product alone at 0.25 mM, three experiments): 0.06 | Fa Exp 1 (Calu-6 [3]; product alone at 0.50 mM): 0.31 | Fa Exp 2 (Calu-6 [3]; product alone at 0.50 mM): 0.15 | Fa Exp 3 (Calu-6 [3]; product alone at 0.50 mM): 0.26 | Average Fa (Calu-6 [3]; product alone at 0.50 mM, three experiments): 0.03 | Fa Exp 1 (Calu-6 [3]; product alone at 1.00 mM): 0.59 | Fa Exp 2 (Calu-6 [3]; product alone at 1.00 mM): 0.18 | Fa Exp 3 (Calu-6 [3]; product alone at 1.00 mM): 0.63 | Average Fa (Calu-6 [3]; [6]): 0.24 | Fa Exp 1 (Calu-6 [3]; product alone at 2.00 mM): 0.69 | Fa Exp 2 (Calu-6 [3]; product alone at 2.00 mM): 0.37 | Fa Exp 3 (Calu-6 [3]; product alone at 2.00 mM): 0.77 | Average Fa (Calu-6 [3]; [7]): 0.47 | Fa Exp 1 (Calu-6 [3]; product alone at 4.00 mM): 0.77 | Fa Exp 2 (Calu-6 [3]; product alone at 4.00 mM): 0.61 | Fa Exp 3 (Calu-6 [3]; product alone at 4.00 mM): 0.83 | Average Fa (Calu-6 [3]; [8]): 0.61

chlorophosphoenol pyruvate [SYN857]
Average number of days of survival ± SD ([2]; 70 mg/kg/inj.): 8.78 ± 0.42 days | Median value ([2]; 70 mg/kg/inj.): 9 days | Ratio % Treated/controls (T/C%) ([2]; 70 mg/kg/inj.): >128.5% | Number of dead mice ([2]; 70 mg/kg/inj., out of 10 mice, at 9 days): 9 | Average number of days of survival ± SD ([2]; 136 mg/kg/inj.): 9.00 ± 00.0 days | Median value ([2]; 136 mg/kg/inj.): 9 days | Ratio % Treated/controls (T/C%) ([2]; 136 mg/kg/inj.): >128.5% | Number of dead mice ([2]; 136 mg/kg/inj., out of 10 mice, at 9 days): 4 | anti-tumour effectiveness (in words) ([2]; L1210 lymphoma mice): anti-tumour effectiveness

chlorophosphoenol pyruvate and carnitine ester [SYN856]
Average number of days of survival ± SD ([2]; 30 mg/kg/inj.): 9.00 ± 0.00 days | Median value ([2]; 30 mg/kg/inj.): 9 days | Ratio % Treated/controls (T/C%) ([2]; 30 mg/kg/inj.): >128.5% | Average number of days of survival ± SD ([2]; 60 mg/kg/inj.): 9.00 ± 0.00 days | Median value ([2]; 60 mg/kg/inj.): 9 days | Ratio % Treated/controls (T/C%) ([2]; 60 mg/kg/inj.): >128.5% | Number of dead mice ([2]; 60 mg/kg/inj., out of 10 mice, at 9 days): 6 | effective concentration compared with chlorophosphoenol pyruvate alone (in words) ([2]; L1210 lymphoma mice): effective at a lower concentration than chlorophosphoenol pyruvate alone | anti-tumour effectiveness (in words) ([2]; L1210 lymphoma mice): anti-tumour effectiveness
